This assay concerns the target T1, Axl (Homo sapiens, UniProt P30530).
T1 construct: endogenous in cells; host or cells: HeLa cells
T1 sequence (P30530 26-894): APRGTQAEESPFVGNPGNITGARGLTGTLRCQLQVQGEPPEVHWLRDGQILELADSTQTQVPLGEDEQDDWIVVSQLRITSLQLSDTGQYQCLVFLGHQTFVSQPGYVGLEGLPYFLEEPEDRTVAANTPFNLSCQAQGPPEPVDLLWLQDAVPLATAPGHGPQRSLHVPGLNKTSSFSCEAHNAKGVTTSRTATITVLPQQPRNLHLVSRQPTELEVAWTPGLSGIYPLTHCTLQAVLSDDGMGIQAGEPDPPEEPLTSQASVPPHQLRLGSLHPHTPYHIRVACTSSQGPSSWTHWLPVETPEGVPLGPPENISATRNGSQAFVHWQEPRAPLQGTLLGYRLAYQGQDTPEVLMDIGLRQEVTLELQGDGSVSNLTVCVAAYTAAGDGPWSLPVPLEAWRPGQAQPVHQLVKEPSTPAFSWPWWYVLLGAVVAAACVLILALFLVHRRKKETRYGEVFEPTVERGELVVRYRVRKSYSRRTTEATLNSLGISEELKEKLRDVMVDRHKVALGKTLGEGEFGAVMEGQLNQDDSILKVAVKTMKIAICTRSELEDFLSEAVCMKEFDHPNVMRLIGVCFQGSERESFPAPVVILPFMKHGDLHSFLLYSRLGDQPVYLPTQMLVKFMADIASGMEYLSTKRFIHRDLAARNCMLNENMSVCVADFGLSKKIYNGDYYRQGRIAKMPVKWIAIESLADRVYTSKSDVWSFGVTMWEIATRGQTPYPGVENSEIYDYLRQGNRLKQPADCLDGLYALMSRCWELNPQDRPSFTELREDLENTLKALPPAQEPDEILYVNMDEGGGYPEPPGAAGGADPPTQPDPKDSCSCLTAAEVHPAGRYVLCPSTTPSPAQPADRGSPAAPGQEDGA
Briefly: Phospho-Akt in-cell Western assay (inhibition of Axl activity, Axl-antibody cross-linking stimulation). The class given is cell-based. Particulars: Hela cells, phospho-Akt readout. How it is done: The compounds of the invention were tested in the following assay for their ability to inhibit Axl activity.
Phospho-Akt in-Cell Western Assay
• Cell culture plate: 96 well assay plate (Corning 3610), white, clear bottom, tissue-culture treated. • Cells: Hela cells. • Starvation medium: For Axl stimulation: 0.5% FCS (fetal calf serum) in DMEM, plus Axl/Fc (extracellular domain of AXL fused to immunoglobulin Fc region) (R&D, 154-AL) 500 ng/mL. • For EGF (epidermal growth factor) stimulation: 0.5% FCS in DMEM (Dulbecco's modified Eagles medium). • Poly-L-Lysine 0.01% solution (the working solution): 10 μg/ml, dilute In PBS (phosphate buffered saline). • Axl antibody cross-linking: • 1st: Mouse anti-Axl (R&D, MAB154). • 2nd: Biotin-SP-conjugated AffiniPure goat anti-mouse IgG (H+L) (Jackson ImmunoResearch #115-065-003). • Fixing buffer: 4% formaldehyde in PBS. • Wash buffer: 0.1% TritonX-100 in PBS. • Quenching buffer: 3% H2O2, 0.1% Azide in wash buffer, Azide and hydrogen peroxide (H2O2) are added fresh. • Blocking buffer: 5% BSA in TBST (tris buffered saline plus 0.1% Tween 20). • Primary antibody: Rabbit anti-human Phospho-Akt antibody (Cell Signaling 9271): 1×250 diluted in blocking buffer. • Secondary antibody: HRP (horse radish peroxidase)-conjugated Goat anti-Rabbit secondary, stock solution: Jackson ImmunoResearch (Goat anti-Rabbit HRP, #111-035-144) 1:1 diluted in glycerol, store at −20° C. The working solution: 1×2000 dilution of stock in blocking buffer. • Chemiluminescent working solution (Pierce, 37030): SuperSignal ELISA (enzyme linked immunosorbant assay) Pico Chemiluminescent substrate. • Crystal Violet solution: Stock: 2.5% Crystal violet in methanol, filtered and kept at ambient temperature. The working solution: dilute the stock 1:20 with PBS immediately before use.
10% SDS: working solution: 5% SDS (sodium dodecylsulfate), diluted in PBS
A 96 well TC (tissue culture treated) plate was coated with 10 μg/mL poly-L-Lysine at 37° C. for 30 min, washed twice with PBS, and air-dried for 5 minutes before cells were added. Hela cells were seeded at 10,000 cells/well and the cells were starved in 100 μL starvation medium containing Axl/Fc for 24 hrs.
The cells were pre-treated with test compounds by adding 100 μL of 2× test compound to the starvation medium on the cells. The cells were incubated at 37° C. for 1 hr before stimulation.
The cells were stimulated by Axl-antibody cross-linking as follows: A 5×1st/2nd Axl antibody mixture was made (37.5 μg/mL 1st/100 μg/mL 2 nd) in starvation medium and nutated at 4° C. with thorough mixing for 1-2 hours for clustering. The resulting mix was warmed to 37° C. 50 μL of 5×Axl 1st/2nd of antibody cluster was added to the cells and the cells were incubated at 37° C. for 5 min.
After 5 minutes stimulation, the plate was flicked to remove medium and the plate was tapped onto paper towels. Formaldehyde (4.0% in PBS, 100 μL) was added to fix the cells and the cells were incubated at ambient temperature for 20 min without shaking.
The cells were washed with a plate washer buffer to remove the formaldehyde solution. The plate was flicked to removed excess wash buffer and tapped onto paper towels. Quenching buffer (100 μL) was added to each well and the cells were incubated at ambient temperature for 20 minutes without shaking.
The cells were washed with a plate washer buffer to remove the quenching buffer. Blocking buffer (100 μL) was added and the cells were incubated at ambient temperature for at least an hour with gentle shaking.
The cells were washed with a plate washer buffer and diluted primary antibody (50 μL) was added to each well (blocking buffer was added to the negative control wells instead). The plates were incubated overnight at 4° C. with gentle shaking.
The wash buffer was removed, diluted secondary antibody (100 μL) was added, and the cells were incubated at ambient temperature for 1 hour with gentle shaking. […]

Setting [1] is: compounds of formula (Ia), Table 1.

As for `Cc1cc(Nc2nc(N)nn2-c2nc(Cl)nc3c(C)csc23)cnc1N1CCC(N2CCCC2)CC1` [compound 92, 1-(2-chloro-7-methylthieno[3,2-d]pyrimidin-4-yl)-N^5-(6-(4-(pyrrolidin-1-yl)piperidin-1-yl)-5-methylpyridin-3-yl)-1H-1,2,4-triazole-3,5-diamine], the IC50 (usually the concentration that gives 50% inhibition) (compounds of formula (Ib), Table 2) lay within 1000 to 10000 nM. Regarding `COc1cc2ncnc(-n3nc(Nc4ccc(C=CCN5CCC(N(C)C)C5)nc4)nc3N)c2cc1OC` (centres unmarked) [compound 79, 1-(6,7-dimethoxy-quinazoline-4-yl)-N^3-(6-(3-(3-(dimethyl-amino)pyrrolidin-1-yl)propenyl)pyridin-3-yl)-1H-1,2,4-triazole-3,5-diamine], the IC50 under setting [1] was < 1000 nM. The same measure, in the same setting: the value for `Cc1csc2c(-n3nc(Nc4ccc(C=CCN5CCN(C(C)C)CC5)nc4)nc3N)ncnc12` [compound 124, 1-(7-methylthieno [3,2-d]pyrimidin-4-yl)-N^3-(2-(3-(4-isopropyl-piperazin-1-yl)propen-1-yl)pyridin-5-yl)-1H-1,2,4-triazole-3,5-diamine] was < 1000 nM; that for `Cc1csc2c(-n3nc(Nc4ccc(C=CCN5CCC(N6CCCCC6)CC5)nc4)nc3N)ncnc12` [compound 129, 1-(7-methylthieno [3,2-d]pyrimidin-4-yl)-N^3-(2-(3-(4-piperidin-1-ylpiperidin-1-yl)propen-1-yl)pyridin-5-yl)-1H-1,2,4-triazole-3,5-diamine] was < 1000 nM.

Take `Cc1csc2c(-n3nc(Nc4ccc(N5CCN(C6CC7CCC6C7)CC5)nc4)nc3N)nc(Cl)nc12` (centres unmarked) [compound 24, 1-(2-chloro-7-methylthieno [3,2-d]pyrimidine-4-yl)-N^3-(6-(4-(bicyclo[2.2.1]heptan-2-yl)piperazin-1-yl)pyridin-3-yl)-1H-1,2,4-triazole-3,5-diamine]: the IC50 under setting [1] was < 1000 nM. The same measure, in the same setting: the value for `Cc1csc2c(-n3nc(Nc4cnc(N5CCN([C@H]6CC7CCC6C7)CC5)c(Cl)c4)nc3N)nc(Cl)nc12` (stereo partly drawn) [compound 109, 1-(2-chloro-7-methylthieno [3,2-d]pyrimidin-4-yl)-N^3-(2-(4-(2S)-bicyclo[2.2.1]heptan-2-ylpiperazin-1-yl)-3-chloropyridin-5-yl)-1H-1,2,4-triazole-3,5-diamine] was 1000 to 10000 nM; that for `COc1cc2ncnc(-n3nc(Nc4ccc(Br)nc4)nc3N)c2cc1OC` [compound 59, 1-(6,7-dimethoxy-quinazoline-4-yl)-N^3-(6-bromopyridin-3-yl)-1H-1,2,4-triazole-3,5-diamine] was > 20000 nM; that for `Cc1cc(Nc2nc(N)n(-c3ncnc4c(C)csc34)n2)cnc1N1CCN(CC2CC2)CC1` [compound 94, 1-(7-methylthieno [3,2-d]pyrimidine-4-yl)-N^3-(6-(4-(cyclopropyl-methyl)piperazin-1-yl)-5-methyl-pyridine-3-yl)-1H-1,2,4-triazole-3,5-diamine] was < 1000 nM.

For `COc1cc2ncnc(-n3nc(Nc4ccc(C=CCN5CCN(C6CCCC6)CC5)nc4)nc3N)c2cc1OC` [compound 90, 1-(6,7-dimethoxy-quinazoline-4-yl)-N^3-(6-(3-(4-cyclopentyl-piperazin-1-yl)propenyl)pyridin-3-yl)-1H-1,2,4-triazole-3,5-diamine], the IC50 under setting [1] is < 1000 nM.

For `Nc1nc(Nc2ccc3c(c2)OCCO3)nn1-c1ccccc1` [compound 3, N^3-(2,3-dihydrobenzo [b][1,4]dioxin-6-yl)-1-phenyl-1H-1,2,4-triazole-3,5-diamine], the IC50 under setting [1] is > 20000 nM. On the same count and under the same terms, the same measure for `Cc1csc2c(-n3nc(Nc4cnc5c(c4)CC(NC4CC6CCC4C6)CC5)nc3N)nc(Cl)nc12` (centres unmarked) [compound 103, 1-(2-chloro-7-methylthieno [3,2-d]pyrimidin-4-yl)-N^3-(6-bicyclo[2.2.1]heptan-2-yl-amino-5,6,7,8-tetrahydro-quinolin-3-yl)-1H-1,2,4-triazole-3,5-diamine]: < 1000 nM; for `Cc1csc2c(-n3nc(Nc4cnc5c(c4)CC(NC4CCCC4)CC5)nc3N)ncnc12` (centres unmarked) [compound 99, 1-(7-methylthieno [3,2-d]pyrimidin-4-yl)-N^3-(6-cyclopentyl-amino-5,6,7,8-tetrahydro-quinolin-3-yl)-1H-1,2,4-triazole-3,5-diamine]: < 1000 nM. Same read-out and setting: the value for `Cc1csc2c(-n3nc(Nc4cnc5c(c4)CN(C4CC6CCC4C6)CC5)nc3N)nc(Cl)nc12` (centres unmarked) [compound 102, 1-(2-chloro-7-methylthieno [3,2-d]pyrimidin-4-yl)-N^3-(6-bicyclo[2.2.1]heptan-2-yl-5,6,7,8-tetrahydro-1,6-naphthyridin-3-yl)-1H-1,2,4-triazole-3,5-diamine] was < 1000 nM; that for `Cc1csc2c(-n3nc(Nc4cnc5c(c4)CN(C(=O)C4CCN(C)CC4)CC5)nc3N)nc(Cl)nc12` [compound 61, 1-(2-chloro-7-methylthieno [3,2-d]pyrimidin-4-yl)-N^3-(6-(1-methyl-piperidin-4-ylcarbonyl)-5,6,7,8-tetrahydro-1,6-naphthyridin-3-yl)-1H-1,2,4-triazole-3,5-diamine] was < 1000 nM; that for `COc1cc2ncnc(-n3nc(Nc4ccc5c(c4)NC(=O)CCC5)nc3N)c2cc1OC` [compound 9, 1-(6,7-dimethoxy-quinazoline-4-yl)-N^3-(4,5-dihydro-1H-benzo[b]azepin-2(3H)-on-8-yl)-1H-1,2,4-triazole-3,5-diamine] was 1000 to 10000 nM. For `Cc1csc2c(-n3nc(Nc4cnc5c(c4)CC(N4CCCC4)CC5)nc3N)nc(Cl)nc12` (centres unmarked) [compound 82, 1-(2-chloro-7-methylthieno [3,2-d]pyrimidin-4-yl)-N^3-(6-pyrrolidin-1-yl-5,6,7,8-tetrahydro-quinolin-3-yl)-1H-1,2,4-triazole-3,5-diamine], the IC50 under setting [1] was < 1000 nM.

As for `Cc1csc2c(-n3nc(Nc4cnc5c(c4)CN(C(=O)C4CCN(C)CC4)CC5)nc3N)ncnc12` [compound 96, 1-(7-methylthieno [3,2-d]pyrimidin-4-yl)-N^3-(6-(1-methyl-piperidin-4-yl)carbonyl-5,6,7,8-tetrahydro-1,6-naphthyridin-3-yl)-1H-1,2,4-triazole-3,5-diamine], the concentration for half-maximal inhibition (IC50) under setting [1] is < 1000 nM.

The values above are taken from US8796259B2, “N3-heteroaryl substituted triazoles and N5-heteroaryl substituted triazoles useful as axl inhibitors” (Rigel Pharmaceuticals, Inc., priority 2006, dated 2014).
